ChEMBL document CHEMBL1201862, “PubChem BioAssay data set” (2004)
The source made the active and inactive calls. Unless noted, no cut-off for these calls is given here.

Columns and labels:
[1] = target: T1, Kappa-type opioid receptor (Homo sapiens, UniProt P41145); test: SAR analysis of small molecule agonists of the kappa opioid receptor via a luminescent beta-arrestin assay. [Related pubchem assays (depositor defined):AID1777, AID1786, AID1966, AID2133, AID2136, AID2348, AID2352, AID2357, AID2359, AID2370, AID2420, AID2478, AID2491, AID2492, AID2493, AID2497, AID2498, AID2500, AID449737, AID488822, AID488842]; type: functional
[2] = target: T2, Mu-type opioid receptor (Homo sapiens, UniProt P35372); test: MOR agonists by imaging, SAR follow-up, image-based (AID 2352); type: functional
[3] = target: T3, Delta-type opioid receptor (Homo sapiens, UniProt P41143); test: DOR agonists, SAR follow-up, image-based (AID 2370); type: functional
[4] = target: T1, Kappa-type opioid receptor; test: KOR antagonists by imaging, SAR follow-up, image-based (AID 2348); type: functional
[5] = target: T2, Mu-type opioid receptor; test: MOR antagonists, SAR follow-up, image-based (AID 2420); type: functional;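 note: compounds added before stimulation of receptor with agonist DAMGO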
[6] = target: T1, Kappa-type opioid receptor; test: KOR agonist analogs, imaging readout, SAR follow-up, image-based (AID 2359); type: functional
[7] = target: T3, Delta-type opioid receptor; test: DOR antagonists, SAR follow-up, image-based (AID 2357); type: functional
[8] = target: T4, E3 ubiquitin-protein ligase XIAP (Homo sapiens, UniProt P98170); test: SAR analysis of Antagonists of XIAP-Bir3 domain of IAP-family anti-apoptotic proteins. [Related pubchem assays (depositor defined):AID1018, AID1449, AID1513, AID1514, AID1638]
[9] = target: T4, E3 ubiquitin-protein ligase XIAP; test: SAR analysis of Antagonists of IAP-family anti-apoptotic proteins. [Related pubchem assays (depositor defined):AID1018, AID1449, AID1513, AID1514, AID1638]
[10] = target: T5, G-protein coupled receptor 35 (Homo sapiens, UniProt Q9HC97); test: SAR analysis of Agonists of the GPR35 Receptor using an Image-Based Assay - Set 4. [Related pubchem assays (depositor defined):AID2013, AID2026]; type: functional
[11] = target: T6, Cannabinoid receptor 1 (Homo sapiens, UniProt P21554); test: SAR analysis of agonists of the Cannabinoid Receptor 1 using an Image-Based Assay - Set 4. [Related pubchem assays (depositor defined):AID2013, AID2026]; type: functional
[12] = target: T5, G-protein coupled receptor 35; test: SAR analysis of Antagonists of the GPR35 Receptor using an Image-Based Assay - Set 6. [Related pubchem assays (depositor defined):AID2013, AID2026]; type: functional
[13] = target: T6, Cannabinoid receptor 1; test: SAR analysis of antagonists of the Cannabinoid Receptor 1 using an Image-Based Assay - Set 4. [Related pubchem assays (depositor defined):AID2013, AID2026]; type: functional
[14] = target: G-protein coupled receptor 55 (Homo sapiens, UniProt Q9Y2T6); test: SAR Analysis of Selective Antagonists of GPR55 using an Image-Based Assay - Set 4. [Related pubchem assays (depositor defined):AID2013, AID2026]; type: functional;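 note: antagonism of response to 5 µM lysophosphatidylinositol agonist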
[15] = target: T7, Cannabinoid receptor 2 (Homo sapiens, UniProt P34972); test: SAR analysis of antagonists of the Cannabinoid Receptor 2 using an Image-Based Assay - Set 3. [Related pubchem assays (depositor defined):AID2013, AID2026]; type: functional
[16] = target: T7, Cannabinoid receptor 2; test: SAR analysis of agonists of the Cannabinoid Receptor 2 using an Image-Based Assay - Set 3. [Related pubchem assays (depositor defined):AID2013, AID2026]; type: functional
[17] = target: T2, Mu-type opioid receptor; test: SAR Analysis of Antagonists of the MOR Receptor using an Image-Based Assay - Set 2. [Related pubchem assays (depositor defined):AID1777, AID1785, AID1786, AID1966, AID2133, AID2136, AID2284, AID2285, AID2420]; type: functional
[18] = target: T1, Kappa-type opioid receptor; test: SAR analysis of Antagonists of the Kappa Opioid Receptor (KOR) using an Image-Based Assay - Set 2. [Related pubchem assays (depositor defined):AID1777, AID1785, AID1786, AID1966, AID2133, AID2136, AID2284, AID2285, AID2348]; type: functional
[19] = target: T2, Mu-type opioid receptor; test: SAR Analysis of Agonists of the MOR Receptor using an Image-Based Assay - Set 2. [Related pubchem assays (depositor defined):AID1777, AID1785, AID1786, AID1966, AID2133, AID2136, AID2284, AID2285, AID2352]; type: functional
[20] = target: T1, Kappa-type opioid receptor; test: SAR analysis of small molecule agonists of the kappa opioid receptor via a luminescent beta-arrestin assay - Set 2. [Related pubchem assays (depositor defined):AID1777, AID1785, AID1786, AID1966, AID2133, AID2136, AID2284, AID449737]; type: functional
[21] = target: T3, Delta-type opioid receptor; test: SAR Analysis of Agonists of the DOR Receptor using an Image-Based Assay - Set 2. [Related pubchem assays (depositor defined):AID1777, AID1785, AID1786, AID1966, AID2133, AID2136, AID2284, AID2285, AID2370]; type: functional
[22] = target: T3, Delta-type opioid receptor; test: SAR Analysis of Antagonists of the DOR Receptor using an Image-Based Assay - Set 2. [Related pubchem assays (depositor defined):AID1777, AID1785, AID1786, AID1966, AID2133, AID2136, AID2284, AID2285, AID2357]; type: functional
[23] = target: T1, Kappa-type opioid receptor; test: KOR antagonist analogs, beta-arrestin recruitment, SAR follow-up, cell-based, luminescence, set 2 (AID 2495); type: functional
[24] = target: T1, Kappa-type opioid receptor; test: SAR analysis of Agonists of the Kappa Opioid Receptor (KOR) using an Image-Based Assay - Set 2. [Related pubchem assays (depositor defined):AID1777, AID1786, AID1966, AID2133, AID2136, AID2284, AID2285, AID2359]; type: functional

T3 sequence (P41143 whole entry): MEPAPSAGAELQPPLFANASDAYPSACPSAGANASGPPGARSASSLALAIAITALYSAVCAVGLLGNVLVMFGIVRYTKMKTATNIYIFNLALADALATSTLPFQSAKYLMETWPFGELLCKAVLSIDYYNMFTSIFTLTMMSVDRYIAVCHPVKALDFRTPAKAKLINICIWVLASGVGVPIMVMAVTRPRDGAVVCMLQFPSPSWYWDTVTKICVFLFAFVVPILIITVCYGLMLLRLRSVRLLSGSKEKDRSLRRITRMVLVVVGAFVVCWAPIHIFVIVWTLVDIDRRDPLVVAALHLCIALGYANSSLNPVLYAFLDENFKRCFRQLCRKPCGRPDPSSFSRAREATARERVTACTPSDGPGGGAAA
T2 sequence (P35372 whole entry): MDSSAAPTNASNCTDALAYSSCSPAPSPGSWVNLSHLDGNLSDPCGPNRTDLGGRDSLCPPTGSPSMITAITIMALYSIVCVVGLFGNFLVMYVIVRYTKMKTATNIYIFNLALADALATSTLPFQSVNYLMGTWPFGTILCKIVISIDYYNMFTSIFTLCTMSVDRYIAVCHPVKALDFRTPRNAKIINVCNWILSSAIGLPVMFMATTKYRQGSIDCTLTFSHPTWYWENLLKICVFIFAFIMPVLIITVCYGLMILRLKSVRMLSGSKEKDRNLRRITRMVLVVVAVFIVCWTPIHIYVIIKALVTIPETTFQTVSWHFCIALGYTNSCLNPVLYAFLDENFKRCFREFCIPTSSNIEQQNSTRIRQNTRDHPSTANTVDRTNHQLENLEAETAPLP
T1 sequence (P41145 whole entry): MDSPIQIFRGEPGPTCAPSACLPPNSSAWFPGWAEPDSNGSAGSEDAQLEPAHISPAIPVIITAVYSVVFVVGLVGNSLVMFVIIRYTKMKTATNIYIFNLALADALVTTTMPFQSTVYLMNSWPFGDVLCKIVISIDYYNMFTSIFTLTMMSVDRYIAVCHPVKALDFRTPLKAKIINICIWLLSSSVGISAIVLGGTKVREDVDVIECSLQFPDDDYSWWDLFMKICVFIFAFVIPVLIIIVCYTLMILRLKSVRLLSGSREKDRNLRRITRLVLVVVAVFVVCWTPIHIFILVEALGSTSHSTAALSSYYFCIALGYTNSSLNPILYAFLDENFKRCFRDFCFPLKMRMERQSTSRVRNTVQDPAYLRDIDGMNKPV
T5 sequence (Q9HC97 whole entry): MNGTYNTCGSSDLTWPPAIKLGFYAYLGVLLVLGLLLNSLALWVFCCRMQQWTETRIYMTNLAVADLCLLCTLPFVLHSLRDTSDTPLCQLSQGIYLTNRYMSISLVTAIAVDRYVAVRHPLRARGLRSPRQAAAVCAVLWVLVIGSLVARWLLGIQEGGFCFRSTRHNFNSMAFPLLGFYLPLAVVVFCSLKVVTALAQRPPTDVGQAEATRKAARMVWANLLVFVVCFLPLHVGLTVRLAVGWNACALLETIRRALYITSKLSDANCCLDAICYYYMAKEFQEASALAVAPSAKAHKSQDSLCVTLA
T4 sequence (P98170 whole entry, the tested form may be a part): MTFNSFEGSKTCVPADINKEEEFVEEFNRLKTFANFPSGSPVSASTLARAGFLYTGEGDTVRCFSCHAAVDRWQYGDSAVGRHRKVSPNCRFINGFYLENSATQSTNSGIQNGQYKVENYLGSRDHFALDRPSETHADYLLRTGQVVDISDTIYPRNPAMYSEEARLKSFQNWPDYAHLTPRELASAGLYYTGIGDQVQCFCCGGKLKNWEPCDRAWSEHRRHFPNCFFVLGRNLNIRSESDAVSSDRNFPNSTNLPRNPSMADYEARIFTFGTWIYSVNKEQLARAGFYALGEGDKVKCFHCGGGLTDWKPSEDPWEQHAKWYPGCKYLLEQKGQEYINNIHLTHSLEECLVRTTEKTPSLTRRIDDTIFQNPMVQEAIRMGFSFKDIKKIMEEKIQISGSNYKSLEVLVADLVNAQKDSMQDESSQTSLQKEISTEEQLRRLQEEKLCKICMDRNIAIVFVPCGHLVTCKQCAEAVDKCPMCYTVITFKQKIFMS
T7 sequence (P34972 whole entry): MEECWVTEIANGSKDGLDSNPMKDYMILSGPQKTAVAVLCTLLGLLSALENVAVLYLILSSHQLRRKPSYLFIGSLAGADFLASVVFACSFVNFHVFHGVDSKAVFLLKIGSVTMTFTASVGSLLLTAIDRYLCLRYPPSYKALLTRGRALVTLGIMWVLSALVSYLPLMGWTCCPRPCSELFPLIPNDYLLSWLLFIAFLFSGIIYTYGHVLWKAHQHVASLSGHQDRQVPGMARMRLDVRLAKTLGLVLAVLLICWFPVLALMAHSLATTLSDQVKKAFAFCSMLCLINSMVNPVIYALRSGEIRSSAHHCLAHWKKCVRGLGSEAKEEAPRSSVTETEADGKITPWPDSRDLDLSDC
T6 sequence (P21554 whole entry): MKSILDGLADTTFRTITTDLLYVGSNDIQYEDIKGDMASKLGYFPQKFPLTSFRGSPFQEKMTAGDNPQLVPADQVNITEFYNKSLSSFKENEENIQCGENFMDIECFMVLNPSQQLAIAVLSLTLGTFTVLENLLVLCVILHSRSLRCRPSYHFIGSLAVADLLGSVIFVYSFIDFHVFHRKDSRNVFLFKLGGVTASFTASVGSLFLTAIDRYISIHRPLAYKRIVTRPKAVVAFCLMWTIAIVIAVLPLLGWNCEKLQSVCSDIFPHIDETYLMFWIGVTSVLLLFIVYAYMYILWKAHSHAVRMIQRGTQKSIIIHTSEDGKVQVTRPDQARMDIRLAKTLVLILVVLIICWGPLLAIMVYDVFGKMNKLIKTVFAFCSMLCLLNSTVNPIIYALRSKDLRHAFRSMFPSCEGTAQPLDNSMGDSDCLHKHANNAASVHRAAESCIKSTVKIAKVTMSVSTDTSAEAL
Sequence of G-protein coupled receptor 55 (Q9Y2T6 whole entry): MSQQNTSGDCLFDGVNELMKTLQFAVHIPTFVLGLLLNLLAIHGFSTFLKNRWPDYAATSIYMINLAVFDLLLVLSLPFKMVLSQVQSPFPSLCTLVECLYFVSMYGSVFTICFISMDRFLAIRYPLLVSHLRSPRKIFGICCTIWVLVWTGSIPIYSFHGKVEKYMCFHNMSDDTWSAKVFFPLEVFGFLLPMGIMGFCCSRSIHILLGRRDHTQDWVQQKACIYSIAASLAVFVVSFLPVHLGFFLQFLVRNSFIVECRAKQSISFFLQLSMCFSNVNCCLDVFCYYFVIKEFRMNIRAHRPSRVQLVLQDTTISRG

O=C(CSc1nnc(-c2ccccn2)n1Cc1ccco1)c1ccc(Cl)cc1
EC50 [1]: > 10 µM (inactive)
EC50 [2]: > 32 µM (inactive)
EC50 [3]: > 32 µM (inactive)
IC50 [4]: > 32 µM (inactive)
IC50 [5]: > 32 µM (inactive)
EC50 [6]: 7.66 µM (active)
IC50 [7]: > 32 µM (inactive)

CN[C@@H](C)C(=O)N[C@H](C(=O)N[C@H](C(=O)Nc1cccc2ccccc12)C(C)C)C(C)C
IC50 [8]: > 100 µM (inactive)
IC50 [9]: 3.9 µM (active)

COCCCNC(=O)c1cc2c(=O)n3ccccc3nc2n(C2CCCC2)c1=N
EC50 [10]: > 32 µM (inactive)
EC50 [11]: > 32 µM (inactive)
IC50 [12]: > 32 µM (inactive)
IC50 [13]: > 32 µM (inactive)
IC50 [14]: > 32 µM (inactive)
IC50 [15]: > 32 µM (inactive)
EC50 [16]: 2.33 µM (active)

Cc1cc(C)c(S(=O)(=O)NCc2ccc(C(=O)NCCN3Cc4ccccc4C3)cc2)c(C)c1
IC50 [17]: > 32 µM (inactive)
IC50 [18]: > 32 µM (inactive)
EC50 [19]: > 32 µM (inactive)
EC50 [20]: 4.97 µM (active)
EC50 [21]: > 32 µM (inactive)
IC50 [22]: 13.9 µM (inactive)
IC50 [23]: > 20 µM (inactive)
EC50 [24]: > 32 µM (inactive)
